Laboratory results reported in patent publication US12083165B2, “Thymosin alpha 1 for use in treatment of cystic fibrosis” (SciClone Pharmaceuticals International (SG) PTE. LTD., priority 2015, dated 2024).

Test system: A. fumigatus-infected C57BL/6 and Cftr−/− mice
Assay: IL-1 cytokine levels in BAL by ELISA in CF mice with aspergillosis
Assay type: in vivo
Settings: 200 μg/kg/i.p. daily 6 days, 7 days post-infection
Procedure: Mice. Wild-type (WT) inbred C57BL6 mice, 8 to 12 weeks old, were purchased from Charles River Breeding Laboratories (Calco, Italy). Genetically engineered homozygote Cftr^−/− mice (33) were bred at the Cystic Fibrosis core animal facility at San Raffaele Hospital, Milan, Italy. Experiments were performed following protocols approved by the institutional animal committee and in accordance with European Economic Community Council Directive as well as institutional animal care and use guidelines.
Infection and treatments. Mice were anesthetized by i.p. injection of 2.5% avertin (Sigma Chemical Co, St. Louis, MO) before intranasal instillation of 2×10^7 A. fumigatus (Af293) resting conidia/20 μl saline. For histology, paraffin-embedded tissue were stained with Periodic acid-Schiff (PAS), and BAL fluid collection was done as described (21, 22). Treatments were as follow: Tα1 and the scrambled polypeptide were supplied as purified (the endotoxin levels were <0.03 pg/ml, by a standard limulus lysate assay) sterile, lyophilized, acetylated polypeptide. The sequences were as follows: Ac-[…]O (Tα1) (SEQ ID NO:1) and Ac-[…]OH (scrambled peptide) (SEQ ID NO:2). The lyophilized powders were reconstituted in sterile water and 200 μg/kg/i.p. were given daily for 6 consecutive days beginning the day of the infection.
Cytokine determination by ELISA. Cytokine levels in lung homogenates from treated and untreated mice were determined by cytokine-specific ELISA (R&D Systems, Inc. Space Import-Export srl, Milan, Italy) as described (21, 22)
C57BL/6 and Cftr^−/− mice were infected intranasally with live A. fumigatus conidia and treated with 200 μg/kg/i.p. Tα1 daily for 6 consecutive days beginning the day of the infection. […] The levels of IL-1β, IL-1α and IL-1RA in the BAL were measured by ELISA (pg/ml) at 7 days post-infection. The results shown represent pooled data from two experiments. *P<0.05; **P<0.01; ***P<0.001.

[1] = either type of mice (C57BL/6, Cftr−/−)

Ac-Ser-Asp-Ala-Ala-Val-Asp-Thr-Ser-Ser-Glu-Ile-Thr-Thr-Lys-Asp-Leu-Lys-Glu-Lys-Lys-Glu-Val-Val-Glu-Glu-Ala-Glu-Asn-O (Ac-SDAAVDTSSEITTKDLKEKKEVVEEAEN-OH; not fully specified; printed as Ac-Ser-Asp-Ala-Ala-Val-Asp-Thr-Ser-Ser-Glu-Ile-Thr-Thr-Lys-Asp-Leu-Lys-Glu-Lys-Lys-Glu-Val-Val-Glu-Glu-Ala-Glu-Asn-O; listed as Homo sapiens) [Tα1, naturally occurring polypeptide of 28 amino acid; supplied as purified sterile, lyophilized, acetylated polypeptide]
levels of the inflammatory-blocking cytokine IL-1RA in the BAL: increased
levels of IL-1α in the BAL [1]: sharply decreased
levels of IL-1β in the BAL [1]: sharply decreased
